One data set relates to HBV in 2.2.15 cells. The data set is described as follows: 2.2.15 cells: viral product in cell lysates quantified via quantitative real time PCR. Format: cell-based, hepatitis B virus (HBV). Conditions: Hepatitis B virus, 120 h, day 5 post treatment, 50% reduction of viral product vs no drug controls, readout (qPCR, HBsAg or HBeAg) not specified for the column. In outline:
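HBV product was measured at day 5 by lysate qPCR or by supernatant HBsAg/HBeAg ELISA, in 2.2.15 cells seeded at 35,000/well and exposed to 5-fold compound dilution series (0.5% DMSO). EC50 is 50% reduction of viral product relative to untreated controls.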

Data set [1] can be described thus: Compound induced cellular toxicity in HepG2 cells, ATPlite 1Step. Format: cell-based. Conditions: human, three days exposure, 50% reduction of total ATP vs no drug controls. As for the experimental part: At day 3, post seeding cells are treated with ATPlite 1Step according to the manufacturer's instructions.

The results in this text go back to patent US12264159B2, “Functionalized heterocycles as antiviral agents” (Enanta Pharmaceuticals, Inc., priority 2018, dated 2025).

Some results are limits rather than exact numbers.

As to `CC(C)[C@@H]1Cn2nc(-c3ccc(O)cc3)c(-c3ccc(O)cc3)c2-c2cc(=O)c(C(=O)O)cn21` [Example 172, (R)-1,2-bis(4-hydroxyphenyl)-6-isopropyl-10-oxo-5,6-dihydro-10H-pyrazolo[1,5-a]pyrido[2,1-c]pyrazine-9-carboxylic acid], the EC50 in the data set with HBV in 2.2.15 cells was less than 0.1 µM. In data set [1], this compound displayed a CC50 at 3 days greater than 25 µM.
The like results for `CC(C)[C@@H]1Cn2nc(-c3ccccc3)c(-c3ccccc3)c2-c2cc(=O)c(C(=O)O)cn21` [Example 179, (R)-6-isopropyl-10-oxo-1,2-diphenyl-5,6-dihydro-10H-pyrazolo[1,5-a]pyrido[2,1-c]pyrazine-9-carboxylic acid] were, in that order, less than 0.1 µM and greater than 25 µM.
With `CC(C)[C@@H]1Cn2nc(-c3ccc(F)cc3)c(-c3ccc(F)cc3)c2-c2cc(=O)c(C(=O)O)cn21` [Example 180, (R)-1,2-bis(4-fluorophenyl)-6-isopropyl-10-oxo-5,6-dihydro-10H-pyrazolo[1,5-a]pyrido[2,1-c]pyrazine-9-carboxylic acid], the EC50 in the data set with HBV in 2.2.15 cells was less than 0.1 µM. The same compound showed a cytotoxic concentration (CC50) at 3 days in data set [1] of 10 to 25 µM.
For `CC(C)[C@@H]1Cn2nc(-c3cccc(F)c3)c(-c3cccc(F)c3)c2-c2cc(=O)c(C(=O)O)cn21` [Example 181, (R)-1,2-bis(3-fluorophenyl)-6-isopropyl-10-oxo-5,6-dihydro-10H-pyrazolo[1,5-a]pyrido[2,1-c]pyrazine-9-carboxylic acid] the same measures were less than 0.1 µM and 10 to 25 µM.
For `CC(C)[C@@H]1Cn2nc(-c3ccccc3F)c(-c3ccccc3F)c2-c2c(F)c(=O)c(C(=O)O)cn21` [Example 182, (R)-11-fluoro-1,2-bis(2-fluorophenyl)-6-isopropyl-10-oxo-5,6-dihydro-10H-pyrazolo[1,5-a]pyrido[2,1-c]pyrazine-9-carboxylic acid] the same measures were less than 0.1 µM and greater than 25 µM.
Consider `CC(C)[C@@H]1Cn2nc(-c3ccccc3)c(-c3ccccc3)c2-c2c(F)c(=O)c(C(=O)O)cn21` [Example 186, (R)-11-fluoro-6-isopropyl-10-oxo-1,2-diphenyl-5,6-dihydro-10H-pyrazolo[1,5-a]pyrido[2,1-c]pyrazine-9-carboxylic acid], for which the concentration giving a half-maximal response (EC50) in the data set with HBV in 2.2.15 cells is less than 0.1 µM. The compound further returned a CC50 at 3 days in data set [1] greater than 25 µM.
The like results for `CC(C)[C@@H]1Cn2nc(-c3ccc(F)cc3)c(-c3ccc(F)cc3)c2-c2c(F)c(=O)c(C(=O)O)cn21` [Example 187, (R)-11-fluoro-1,2-bis(4-fluorophenyl)-6-isopropyl-10-oxo-5,6-dihydro-10H-pyrazolo[1,5-a]pyrido[2,1-c]pyrazine-9-carboxylic acid] were, in that order, less than 0.1 µM and 10 to 25 µM.
Regarding `CC(C)[C@@H]1Cn2nc(-c3cccc(F)c3)c(-c3cccc(F)c3)c2-c2c(F)c(=O)c(C(=O)O)cn21` [Example 188, (R)-11-fluoro-1,2-bis(3-fluorophenyl)-6-isopropyl-10-oxo-5,6-dihydro-10H-pyrazolo[1,5-a]pyrido[2,1-c]pyrazine-9-carboxylic acid], the EC50 in the data set on HBV in 2.2.15 cells was less than 0.1 µM. Moreover, the cytotoxic concentration (CC50) at 3 days in data set [1] is greater than 25 µM.
The compound `CC(C)[C@@H]1Cn2nc(-c3ccc(O)cc3)c(-c3ccc(O)cc3)c2-c2c(F)c(=O)c(C(=O)O)cn21` [Example 191, (R)-11-fluoro-1,2-bis(4-hydroxyphenyl)-6-isopropyl-10-oxo-5,6-dihydro-10H-pyrazolo[1,5-a]pyrido[2,1-c]pyrazine-9-carboxylic acid] returned an EC50 in the data set with HBV in 2.2.15 cells of less than 0.1 µM. The CC50 at 3 days in data set [1] is greater than 25 µM.
Turning to `CC(C)[C@@H]1Cn2nc(-c3ccccc3)c(-c3ccccc3)c2-c2cc(=O)c(-c3ncn[nH]3)cn21` [Example 192, (R)-6-isopropyl-1,2-diphenyl-9-(1H-1,2,4-triazol-5-yl)-5,6-dihydro-10H-pyrazolo[1,5-a]pyrido[2,1-c]pyrazin-10-one], in the data set with HBV in 2.2.15 cells, the EC50 is less than 0.1 µM. In data set [1], the half-maximal cytotoxic concentration (CC50) at 3 days was greater than 25 µM.
Take `CC(C)(C)[C@@H]1Cn2nc(-c3cccc(F)c3)c(-c3cccc(F)c3)c2-c2cc(=O)c(-c3ncn[nH]3)cn21` [Example 193, (R)-6-(tert-butyl)-1,2-bis(3-fluorophenyl)-9-(1H-1,2,4-triazol-5-yl)-5,6-dihydro-10H-pyrazolo[1,5-a]pyrido[2,1-c]pyrazin-10-one]: the EC50 in the data set on HBV in 2.2.15 cells was less than 0.1 µM. In data set [1], the half-maximal cytotoxic concentration (CC50) at 3 days is greater than 25 µM.
The compound `CC(C)(C)[C@@H]1Cn2nc(-c3ccc(F)cc3)c(-c3ccc(F)cc3)c2-c2cc(=O)c(-c3ncn[nH]3)cn21` [Example 194, (R)-6-(tert-butyl)-1,2-bis(4-fluorophenyl)-9-(1H-1,2,4-triazol-5-yl)-5,6-dihydro-10H-pyrazolo[1,5-a]pyrido[2,1-c]pyrazin-10-one] had a 50% effective concentration (EC50) in the data set with HBV in 2.2.15 cells of less than 0.1 µM. In addition, the CC50 at 3 days in data set [1] lay within 10 to 25 µM.
For `CC(C)(C)[C@@H]1Cn2nc(C3CC3)c(-c3ccccc3)c2-c2cc(=O)c(-c3ncn[nH]3)cn21` [Example 195, (R)-6-(tert-butyl)-2-cyclopropyl-1-phenyl-9-(1H-1,2,4-triazol-5-yl)-5,6-dihydro-10H-pyrazolo[1,5-a]pyrido[2,1-c]pyrazin-10-one] the same measures were less than 0.1 µM and greater than 25 µM.
`CC(C)(C)[C@@H]1Cn2nc(C3CC3)c(-c3ccc(F)cc3)c2-c2cc(=O)c(-c3ncn[nH]3)cn21` [Example 196, (R)-6-(tert-butyl)-2-cyclopropyl-1-(4-fluorophenyl)-9-(1H-1,2,4-triazol-5-yl)-5,6-dihydro-10H-pyrazolo[1,5-a]pyrido[2,1-c]pyrazin-10-one] yielded a concentration giving a half-maximal response (EC50) in the data set with HBV in 2.2.15 cells of less than 0.1 µM. Moreover, the CC50 at 3 days in data set [1] was greater than 25 µM.
`CC(C)(C)[C@@H]1Cn2nc(C3CC3)c(-c3cccc(F)c3)c2-c2cc(=O)c(-c3ncn[nH]3)cn21` [Example 197, (R)-6-(tert-butyl)-2-cyclopropyl-1-(3-fluorophenyl)-9-(1H-1,2,4-triazol-5-yl)-5,6-dihydro-10H-pyrazolo[1,5-a]pyrido[2,1-c]pyrazin-10-one] displayed an EC50 with HBV in 2.2.15 cells of less than 0.1 µM. In data set [1], this compound had a CC50 at 3 days greater than 25 µM.
For `CC(C)(C)[C@@H]1Cn2nc(C3CC3)c(-c3ccccc3F)c2-c2cc(=O)c(-c3ncn[nH]3)cn21` [Example 198, (R)-6-(tert-butyl)-2-cyclopropyl-1-(2-fluorophenyl)-9-(1H-1,2,4-triazol-5-yl)-5,6-dihydro-10H-pyrazolo[1,5-a]pyrido[2,1-c]pyrazin-10-one] the same measures were less than 0.1 µM and greater than 25 µM.
The like results for `O=C(O)c1cn2c(cc1=O)-c1c(-c3ccccc3)c(-c3ccccc3)nn1CC2` [Example 199, 10-oxo-1,2-diphenyl-5,6-dihydro-10H-pyrazolo[1,5-a]pyrido[2,1-c]pyrazine-9-carboxylic acid] were, in that order, less than 0.1 µM and greater than 25 µM.
`O=C(O)c1cn2c(cc1=O)-c1c(-c3cccc(F)c3)c(-c3cccc(F)c3)nn1CC2` [Example 201, 1,2-bis(3-fluorophenyl)-10-oxo-5,6-dihydro-10H-pyrazolo[1,5-a]pyrido[2,1-c]pyrazine-9-carboxylic acid]: the EC50 with HBV in 2.2.15 cells was less than 0.1 µM. The same compound registered a CC50 at 3 days in data set [1] greater than 25 µM.
The like results for `C[C@@H]1Cn2nc(-c3ccccc3)c(-c3ccccc3)c2-c2cc(=O)c(C(=O)O)cn21` [Example 203, (R)-6-methyl-10-oxo-1,2-diphenyl-5,6-dihydro-10H-pyrazolo[1,5-a]pyrido[2,1-c]pyrazine-9-carboxylic acid] were, in that order, less than 0.1 µM and greater than 25 µM.
For `C[C@@H]1Cn2nc(-c3ccc(F)cc3)c(-c3ccc(F)cc3)c2-c2cc(=O)c(C(=O)O)cn21` [Example 204, (R)-1,2-bis(4-fluorophenyl)-6-methyl-10-oxo-5,6-dihydro-10H-pyrazolo[1,5-a]pyrido[2,1-c]pyrazine-9-carboxylic acid] the same measures were less than 0.1 µM and greater than 25 µM.
For `C[C@@H]1Cn2nc(-c3cccc(F)c3)c(-c3cccc(F)c3)c2-c2cc(=O)c(C(=O)O)cn21` [Example 205, (R)-1,2-bis(3-fluorophenyl)-6-methyl-10-oxo-5,6-dihydro-10H-pyrazolo[1,5-a]pyrido[2,1-c]pyrazine-9-carboxylic acid] the same measures were less than 0.1 µM and 10 to 25 µM.
On to `C[C@@H]1Cn2nc(-c3ccccc3F)c(-c3ccccc3F)c2-c2cc(=O)c(C(=O)O)cn21` [Example 206, (R)-1,2-bis(2-fluorophenyl)-6-methyl-10-oxo-5,6-dihydro-10H-pyrazolo[1,5-a]pyrido[2,1-c]pyrazine-9-carboxylic acid], for which the concentration giving a half-maximal response (EC50) in the data set on HBV in 2.2.15 cells is less than 0.1 µM. In data set [1], this compound came in with a CC50 at 3 days of 10 to 25 µM.
`CC(C)(C)[C@@H]1Cn2cnc(-c3ccc(F)cc3)c2-c2cc(=O)c(C(=O)O)cn21` [Example 207, (R)-6-(tert-butyl)-1-(4-fluorophenyl)-10-oxo-5,6-dihydro-10H-imidazo[1,5-a]pyrido[2,1-c]pyrazine-9-carboxylic acid] yielded an EC50 in the data set on HBV in 2.2.15 cells of less than 0.1 µM. Further, the 50% cytotoxic concentration (CC50) at 3 days in data set [1] is greater than 25 µM.
On to `CC(C)(C)[C@@H]1Cn2nnc(-c3ccc(F)cc3)c2-c2cc(=O)c(C(=O)O)cn21` [Example 208, (R)-6-(tert-butyl)-1-(4-fluorophenyl)-10-oxo-5,6-dihydro-10H-pyrido[1,2-a][1,2,3]triazolo[5,1-c]pyrazine-9-carboxylic acid], for which the EC50 in the data set on HBV in 2.2.15 cells was less than 0.1 µM. Besides, the CC50 at 3 days in data set [1] was greater than 25 µM.
The like results for `O=C(O)c1cn2c(cc1=O)-c1c(-c3cccc(F)c3)c(-c3cccc(F)c3)nn1C[C@H]2C1COC1` [Example 209, (R)-1,2-bis(3-fluorophenyl)-6-(oxetan-3-yl)-10-oxo-5,6-dihydro-10H-pyrazolo[1,5-a]pyrido[2,1-c]pyrazine-9-carboxylic acid] were, in that order, less than 0.1 µM and greater than 25 µM.
